According to EP0326329B1, “Quinazoline derivatives useful as insecticides” (Dow AgroSciences LLC, priority 1988, dated 1989):

Experiments:
Format in all cases: in vivo
[1] = test system: Erysiphe graminis tritici (powdery mildew); test: Greenhouse Test 1, foliar spray fungicide screen (POWD MDEW), host wheat; details: disease control rating, 400 ppm (+++ at 100 ppm)
[2] = test system: Pyricularia oryzae (rice blast); details: disease control rating, foliar spray, host rice; 400 ppm (+++ at 100 ppm)
[3] = test system: Puccinia recondita tritici (leaf rust); test: Greenhouse Test 1, foliar spray fungicide screen (LEAF RUST), host wheat; details: disease control rating, 400 ppm (+++ at 100 ppm)
[4] = test system: Botrytis cinerea (gray mold); test: Greenhouse Test 1, foliar spray fungicide screen (GRAY MOLD), host grape berries; details: disease control rating, 400 ppm (+++ at 100 ppm)
[5] = test system: Pseudoperonospora cubensis (downy mildew); test: Greenhouse Test 1, foliar spray fungicide screen (DOWN MDEW), host squash; details: disease control rating, 400 ppm (+++ at 100 ppm)
[6] = test system: Southern corn rootworm (Diabrotica undecimpuctata howardi Barber); test: Mite/insect screen, soil treatment (CRW); details: Diabrotica, percent mortality, soil treatment, read-out: CRW RESULTS %; for mortality at 12 ppm: CRW rate 12.00 ppm; for mortality at 24 ppm: CRW rate 24.00 ppm
Outline: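 Compounds dissolved in acetone/alcohol (50:50) with Toximul R/S emulsifiers, diluted with water. Soil (15 g, with presoaked corn seed) treated with 1 mL test solution, dried 6–12 h, then five 2–3 instar larvae added; held at 23°C. Percent mortality and phytotoxicity scored after standard exposure periods.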

[7] = test system: southern armyworm (Spodopetra eridania Cramer); test: Mite/insect screen, sprayed squash leaves (SAW); details: percent mortality; for mortality at 200 ppm / mortality at 400 ppm: Spodoptera eridania, read-out: SAW RESULTS %
Outline: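 Compounds dissolved in acetone/alcohol with TOXIMUL R/S emulsifiers, diluted with water to test concentrations, and sprayed to runoff on both leaf surfaces at 10 psi, then dried 1 h. Excised treated squash leaves given southern armyworm larvae; aphid and spider mite tests on sprayed squash cotyledons. Percent mortality and phytotoxicity scored after standard exposure.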

[8] = test system: Twospotted spider mites (Tetranychus urticae Koch); test: Mite/insect screen, sprayed squash cotyledons (SM); details: Tetranychus urticae, percent mortality, read-out: SM RESULTS %; for mortality at 400 ppm: spray rate 400 ppm; for mortality at 200 ppm: spray rate 200 ppm
Outline: (§1)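 Compounds were dissolved in 50:50 acetone/alcohol containing sulfonate/nonionic emulsifier blends (23 g and 13 g per liter) and diluted with water to test concentrations. Leaves were sprayed on both surfaces to runoff and dried for one hour. Percent mortality and phytotoxicity were scored after standard exposure periods.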

[9] = test system: melon aphids (Aphis gossypii Glover); test: Mite/insect screen, sprayed squash cotyledons (MA); details: Aphis gossypii, percent mortality, read-out: MA RESULTS %; for mortality at 400 ppm: spray rate 400 ppm; for mortality at 200 ppm: spray rate 200 ppm
Outline: as §1

| Structure (SMILES) | POWD MDEW [1] | RICE BLAST [2] | LEAF RUST [3] | GRAY MOLD [4] | DOWN MDEW [5] | mortality at 12 ppm [6] [%] | mortality at 24 ppm [6] [%] | SAW RESULTS % ([7]; spray rate 200 ppm) [%] | SAW RESULTS % ([7]; spray rate 400 ppm) [%] | mortality at 400 ppm [8] [%] | mortality at 400 ppm [9] [%] | mortality at 200 ppm ([7]; spray rate 200 ppm) [%] | mortality at 400 ppm ([7]; spray rate 400 ppm) [%] | mortality at 200 ppm [8] [%] | mortality at 200 ppm [9] [%] |
| --- | --- | --- | --- | --- | --- | --- | --- | --- | --- | --- | --- | --- | --- | --- | --- |
| Fc1cccc2c(OCCc3ccc(-c4ccccc4)cc3)ncnc12 [Example 116, 8-fluoro-4-[2-(1,1'-biphenyl)-4-ylethoxy]quinazoline] | ++ (++ = 90-100% control at 400 ppm) | +++ (+++ = 90-100% control at 100 ppm) | + (+ = 20-89% control at 400 ppm) | - (- = 0-19% control at 400 ppm) | +++ (+++ = 90-100% control at 100 ppm) | 0 | 0 | 0 | 0 | 0 | 0 |  |  |  |  |
| Clc1ccc(CCCc2ncnc3ccccc23)cc1 [Example 117, 4-[3-(4-chlorophenyl)propyl]quinazoline] | +++ (+++ = 90-100% control at 100 ppm) | ++ (++ = 90-100% control at 400 ppm) | +++ (+++ = 90-100% control at 100 ppm) | - (- = 0-19% control at 400 ppm) | ++ (++ = 90-100% control at 400 ppm) | 0 | 0 |  |  | 0 | 0 | 0 | 0 | 100 | 90 |
| Fc1cccc2c(OCCc3ccc(C(F)(F)F)cc3)ncnc12 [Example 118, 8-fluoro-4-[2-(4-trifluoromethyl)ethoxy]quinazoline] | +++ (+++ = 90-100% control at 100 ppm) | +++ (+++ = 90-100% control at 100 ppm) | +++ (+++ = 90-100% control at 100 ppm) | - (- = 0-19% control at 400 ppm) | +++ (+++ = 90-100% control at 100 ppm) | 0 | 0 |  |  | 0 | 0 | 60 | 100 | 100 | 100 |
| Fc1cccc2c(OCCCc3ccc(Oc4ccccc4)cc3)ncnc12 [Example 119, 8-fluoro-4-[3-(4-phenoxyphenyl)propoxy]quinazoline] | + (+ = 20-89% control at 400 ppm) | ++ (++ = 90-100% control at 400 ppm) | + (+ = 20-89% control at 400 ppm) | - (- = 0-19% control at 400 ppm) | - (- = 0-19% control at 400 ppm) | 0 | 0 |  |  | 0 | 0 | 0 | 90 | 50 | 80 |
| Oc1ccc(CCCOc2ncnc3ccccc23)cc1 [Example 121, 4-[3-(4-hydroxyphenyl)propoxy]quinazoline] | - (- = 0-19% control at 400 ppm) | - (- = 0-19% control at 400 ppm) | - (- = 0-19% control at 400 ppm) | - (- = 0-19% control at 400 ppm) | - (- = 0-19% control at 400 ppm) | 0 | 0 |  |  | 0 | 0 | 0 | 0 | 0 | 0 |
| CCOc1ccc(CCCOc2ncnc3c(F)cccc23)cc1 [Example 125, 8-fluoro-4-[3-[4-ethoxyphenyl]propoxy]quinazoline] | + (+ = 20-89% control at 400 ppm) | + (+ = 20-89% control at 400 ppm) | + (+ = 20-89% control at 400 ppm) | - (- = 0-19% control at 400 ppm) | + (+ = 20-89% control at 400 ppm) | 0 | 0 |  |  | 0 | 0 | 0 | 0 | 0 | 0 |
| CC(C)c1ccc(CCCc2ncnc3ccccc23)cc1 [Example 126, 4-[3-[4-(1-methylethyl)phenyl]propyl]quinazoline] | + (+ = 20-89% control at 400 ppm) | +++ (+++ = 90-100% control at 100 ppm) | + (+ = 20-89% control at 400 ppm) | - (- = 0-19% control at 400 ppm) | ++ (++ = 90-100% control at 400 ppm) | 0 | 0 |  |  | 100 | 80 | 0 | 0 | 100 | 100 |
| CC(C)(C)c1ccc(CCCc2ncnc3ccccc23)cc1 [Example 127, 4-[3-[4-(1,1-dimethylethyl)phenyl]propyl]quinazoline] | +++ (+++ = 90-100% control at 100 ppm) | +++ (+++ = 90-100% control at 100 ppm) | ++ (++ = 90-100% control at 400 ppm) | - (- = 0-19% control at 400 ppm) | +++ (+++ = 90-100% control at 100 ppm) | 0 | 0 |  |  | 100 | 100 | 0 | 0 | 100 | 100 |
| FC(F)(F)c1cc(CCOc2ncnc3ccccc23)cc(C(F)(F)F)c1 [Example 128, 4-[2-[3,5-di(trifluoromethyl)phenyl]ethoxy]quinazoline] | ++ (++ = 90-100% control at 400 ppm) | + (+ = 20-89% control at 400 ppm) | + (+ = 20-89% control at 400 ppm) | - (- = 0-19% control at 400 ppm) | + (+ = 20-89% control at 400 ppm) | 0 | 0 |  |  | 0 | 0 | 0 | 0 | 0 | 0 |
| C=CC(CCOc1ncnc2ccccc12)CCc1ccccc1 (centres unmarked) [Example 130, 4-[3-ethenyl-5-phenyl-pentyloxy]quinazoline] | + (+ = 20-89% control at 400 ppm) | - (- = 0-19% control at 400 ppm) | - (- = 0-19% control at 400 ppm) | - (- = 0-19% control at 400 ppm) | - (- = 0-19% control at 400 ppm) | 0 | 0 |  |  | 70 | 100 | 0 | 0 | 80 | 80 |
